Data reported in paper PMC12471299, “Secondary Metabolites of the Marine Sponge-Derived Fungus Aspergillus subramanianii 1901NT-1.40.2 and Their Antimicrobial and Anticancer Activities” (Marine Drugs, 2025).
Values after ≈ are worked out from the molar mass of the structure shown. Values joined by “and” are separate entries in the source; they are usually repeats but may differ in a detail not shown here. Equal entries are not always repeated. Values belong to the compound of their own block, whether it stands above or below them.

Key:
Candida albicans KMM 455 [1] = assay: Biofilm formation assay (MTT); assay type: cell-based; conditions: C. albicans, 18 h
Protocol: (§1) The Gram-positive bacterial Staphylococcus aureus ATCC 21027, Gram-negative bacterial Escherichia coli VKPM (B-7935), and yeast-like fungal Candida albicans KMM 455 strains were fermented on solid medium Mueller Hinton broth with agar (16.0 g/L) in a Petri dish at 37 °C for 24 h. The antimicrobial activity of the compound was tested at concentrations ranging from 100 µM and lower. The effect of the compound on bacterial growth was estimated as described by. Gentamicin and amphotericin B were used as positive controls against S. aureus, E. coli, and C. albicans, and a 1% dimethyl sulfoxide (DMSO) solution in PBS was used as a negative control. The optical density of the bacterial suspension after 18 h was measured at λ = 620 nm. The effect of the compound on biofilm formation for 18 h was tested using MTT reagent (Sigma-Aldrich, St. Louis, MO, USA) in accordance with. The optical density of the obtained solution was measured at λ = 570 nm. A Multiskan FS spectrophotometer (Thermo Scientific Inc., Beverly, MA, USA) was used for both assays. The results were calculated as percentages of the control data and presented as minimal concentrations reduced by 50% of growth or biofilm formation (MIC50).

Candida albicans KMM 455 [2] = assay: Antimicrobial assay, growth inhibition (optical density); assay type: cell-based; conditions: Candida albicans, KMM455, 18 h, C. albicans, 18 h
Protocol: as §1

[3] = tested on: Escherichia coli VKPM (B-7935); assay: Biofilm formation assay (MTT); assay type: cell-based; conditions: E. coli, 18 h
Protocol: as §1

[4] = tested on: Staphylococcus aureus ATCC 21027; assay: Biofilm formation assay (MTT); assay type: cell-based; conditions: S. aureus, 18 h
Protocol: as §1

H9c2 cardiomyocytes = assay: Cell viability assay (MTT); assay type: cell-based, rat
Excerpt: (§2) Rat cardiomyocyte H9c2 cells were kindly provided by Prof. Dr. Gunhild von Amsberg from the Martini-Klinik Prostate Cancer Center, University Hospital Hamburg-Eppendorf, Hamburg, Germany. The human HaCaT keratinocyte cell line was kindly provided by Prof. N. Fusenig (Cancer Research Centre, Heidelberg, Germany). Non-cancerous human breast epithelial MCF-10A cells were kindly provided by Dr. Irina Zhitnyak (N. N. Blokhin National Medical Research Center of Oncology, Moscow, Russia). Human breast cancer MCF-7 HTB-22 and MDA-MB-231 cells were obtained from the ATTC (Manassas, VA, USA).
(§3) H9c2 and HaCaT cells were cultured in DMEM with 10% fetal bovine serum and 1% penicillin/streptomycin (BioloT, St. Petersburg, Russia). MCF-7 and MDA-MB-231 cells were cultured in MEM (BioloT, St. Petersburg, Russia) with 10% fetal bovine serum (FBS) and 1% penicillin/streptomycin (BioloT, St. Petersburg, Russia). MCF 10A cells were cultured in DMEM F12 medium (BioloT, St. Petersburg, Russia) supplemented with 20% FBS, 20 ng/mL hrEGF (Sci-Store, Moscow, Russia), and 1% penicillin/streptomycin (BioloT, St. Petersburg, Russia). All cells were cultured at 37 °C in a humidified atmosphere containing 5% CO2.
(§4) H9c2 cells were seeded at a concentration of 3 × 10^3 cells/well. MCF-10A, MCF-7, and MDA-MB-231 cells were seeded at 5 × 10^3 cells/well, and HaCaT cells were seeded at 1 × 10^4 cells/well. The experiments were initiated after 24 h.
(§5) Compounds at concentrations up to 100 µM were added to the wells for 24h or 48 h, and the viability of the cells was measured using an MTT (3-(4,5-dimethylthiazol-2-yl)-2,5-diphenyltetrazolium bromide) assay, which was performed according to the manufacturer’s instructions (Sigma-Aldrich, Munich, Germany). […] DMSO was used as a control. The results are presented as percentages of the control data.

[5] = tested on: Escherichia coli VKPM (B-7935); assay: Antimicrobial assay, growth inhibition (optical density); assay type: cell-based; conditions: E. coli, 18 h
Protocol: as §1

[6] = tested on: Staphylococcus aureus ATCC 21027; assay: as above; assay type: cell-based; conditions: S. aureus, 18 h
Protocol: as §1

[7] = tested on: MCF-7 breast cancer cells; assay: Cell viability assay (MTT); assay type: cell-based, human
Excerpt: as §2, §3, §4, §5

HaCaT keratinocytes = assay: Cell viability assay (MTT); assay type: cell-based, human
Excerpt: as §2, §3, §4, §5

[8] = tested on: MCF-10A breast epithelial cells; assay: Cell viability assay (MTT); assay type: cell-based, human; conditions: MCF10A
Excerpt: as §2, §3, §4, §5

[9] = tested on: MDA-MB-231 breast cancer cells; assay: Cell viability assay (MTT); assay type: cell-based, human
Excerpt: as §2, §3, §4, §5

Biofilm formation, MIC50 (Candida albicans KMM 455 [1]): 1.38 ± 0.14 µM
MIC50 (Candida albicans KMM 455 [2]): 1.18 ± 0.15 µM (≈ 1.09 µg/mL)
SMILES: C[C@@H]1[C@H](O)[C@@H](C)/C=C/C=C/C=C/C=C/C=C/C=C/C=C/[C@H](O[C@@H]2O[C@H](C)[C@@H](O)[C@H](N)[C@@H]2O)C[C@@H]2O[C@](O)(C[C@@H](O)C[C@@H](O)[C@H](O)CC[C@@H](O)C[C@@H](O)CC(=O)O[C@H]1C)C[C@H](O)[C@H]2C(=O)O [Amphotericin B, reference compound]

Biofilm formation, MIC50 [3]: 43.51 µM and 43.51 ± 4.03 µM
Biofilm formation, MIC50 [4]: 31.14 µM and 31.14 ± 2.34 µM
Biofilm formation, MIC50 (Candida albicans KMM 455 [1]): >100 µM
Growth inhibition, MIC50 [5]: 21.07 ± 2.11 µM
MIC50 ([5]; Escherichia coli): 21.1 µM (≈ 4.68 µg/mL)
Growth inhibition, MIC50 [6]: 20.34 ± 2.58 µM
MIC50 ([6]; Staphylococcus aureus, ATCC21027, 18 h): 20.3 µM (≈ 4.52 µg/mL)
MIC50 (Candida albicans KMM 455 [2]): > 100 µM
SMILES: Cc1c(C)c(O)c2c(c1C)C(C)(O)OC2=O (stereo not shown) [Compound 3, sclerolide]
cell viability (H9c2 cardiomyocytes; H9c2, 24 h, 1.0 µM): 81.1 ± 3.2 % of control
cell viability (H9c2 cardiomyocytes; H9c2, 24 h, 10.0 µM): 88.7 ± 4.4 % of control
cell viability (H9c2 cardiomyocytes; H9c2, 24 h, 100.0 µM): 74.6 ± 8.3 % of control
cell viability (H9c2 cardiomyocytes; H9c2, 48 h, 1.0 µM): 102.0 ± 5.5 % of control
cell viability (H9c2 cardiomyocytes; H9c2, 48 h, 10.0 µM): 102.7 ± 6.7 % of control
cell viability (H9c2 cardiomyocytes; H9c2, 48 h, 100.0 µM): 62.5 ± 4.6 % of control
decrease of viability (H9c2 cardiomyocytes; H9c2, at 100 µM, range given for H9c2 and HaCaT together): 30.0–37.5%
cell viability ([7]; MCF-7, 24 h, 1.0 µM): 107.2 ± 8.9 % of control
cell viability ([7]; MCF-7, 24 h, 10.0 µM): 95.6 ± 2.4 % of control
cell viability ([7]; MCF-7, 24 h, 100.0 µM): 70.2 ±5.5 % of control
cell viability ([7]; MCF-7, 48 h, 1.0 µM): 83.8 ± 3.1 % of control
cell viability ([7]; MCF-7, 48 h, 10.0 µM): 76.0 ± 2.6 % of control
cell viability ([7]; MCF-7, 48 h, 100.0 µM): 55.1 ± 1.0 % of control
cell viability (HaCaT keratinocytes; 24 h, 1.0 µM): 94.4 ± 5.9 % of control
cell viability (HaCaT keratinocytes; 24 h, 10.0 µM): 100.2 ± 3.0 % of control
cell viability (HaCaT keratinocytes; 24 h, 100.0 µM): 63.0 ± 8.6 % of control
cell viability (HaCaT keratinocytes; 48 h, 1.0 µM): 96.8 ± 1.0 % of control
cell viability (HaCaT keratinocytes; 48 h, 10.0 µM): 96.6 ± 4.1 % of control
cell viability (HaCaT keratinocytes; 48 h, 100.0 µM): 69.4 ± 3.5 % of control
decrease of viability (HaCaT keratinocytes; at 100 µM, range given for H9c2 and HaCaT together): 30.0–37.5%
IC50 ([8]; Homo sapiens, MCF-10A, time not stated, read-out: half-maximal concentration (IC50), viability): ~100 µM
cell viability ([8]; 24 h, 1.0 µM): 101.7 ± 1.3 % of control
cell viability ([8]; 24 h, 10.0 µM): 92.2 ± 3.5 % of control
cell viability ([8]; 24 h, 100.0 µM): 62.5 ± 2.2 % of control
cell viability ([8]; 48 h, 1.0 µM): 101.6 ± 5.1 % of control
cell viability ([8]; 48 h, 10.0 µM): 74.4 ± 2.4 % of control
cell viability ([8]; 48 h, 100.0 µM): 47.5 ± 7.0 % of control
cell viability ([9]; MDA-MB-231, 24 h, 1.0 µM): 99.8 ± 1.3 % of control
cell viability ([9]; MDA-MB-231, 24 h, 10.0 µM): 100.6 ± 5.7 % of control
cell viability ([9]; MDA-MB-231, 24 h, 100.0 µM): 68.6 ± 8.3 % of control
cell viability ([9]; MDA-MB-231, 48 h, 1.0 µM): 107.6 ± 2.8 % of control
cell viability ([9]; MDA-MB-231, 48 h, 10.0 µM): 99.0 ± 5.1 % of control
cell viability ([9]; MDA-MB-231, 48 h, 100.0 µM): 60.9 ± 3.6 % of control
